Data reported in patent US11633335B2, “Skin cleansing composition” (KAO CORPORATION, priority 2017, dated 2023).

Legend:
[1] = Keratotic plug detergency after washing with water: collapse state one minute after contact with water; parameters: species or system human; details: sample substituted with water; samples of Table 1
Excerpt: The penetration was relatively evaluated by criteria with 11 ratings starting from the rating 1 “the sample hardly penetrated into the keratotic plug” to the rating 11 “the sample penetrated to the center of the keratotic plug”. The collapsibility by the detergency against keratotic plug was relatively evaluated by criteria with 11 ratings starting from the rating 1 “almost no change is observed in the external appearance of the keratotic plug” to the rating 11 “peeling or separation is observed in the area from the surface layer to the central portion of the keratotic plug (the initial appearance of the keratotic plug is not retained)”. After one minute from the contact of the keratotic plugs with the sample, Kimwipes (registered trademark) was brought into contact with an edge of the cover glass to remove the sample under the cover glass. […] The results of the evaluation are shown in the column “Keratotic plug detergency (during washing with water)” in Table. The measurements were performed at 25° C.

[2] = cited from earlier work
[3] = Keratotic plug detergency (penetration): penetration of the sample into keratotic plugs one minute after contact, digital microscope; parameters: species or system human; details: contact with the sample for 1 minute; samples of Table 1
Protocol: Keratotic plugs in the nasal region were removed with “Biore Nose Pack (manufactured by Kao Corporation)”, the resulting keratotic plugs on the pack were gently taken out with tweezers. […] Consequently, the sample entered into the gap between the slide glass and the cover glass by capillary phenomenon and was brought into contact with the keratotic plugs. The contact of the keratotic plugs and the sample was recorded with a digital microscope (VHX-5000, manufactured by Keyence Corporation, magnification: 150×), and the penetration of the sample into the keratotic plugs and the collapse state of the keratotic plugs were evaluated after one minute from the contact of the keratotic plugs with the sample. The results of each evaluation are shown in the columns “Keratotic plug detergency (penetration)” and “Keratotic plug detergency (during cleansing)” in Tables. The measurements were performed at 25° C. The penetration was relatively evaluated by criteria with 11 ratings starting from the rating 1 “the sample hardly penetrated into the keratotic plug” to the rating 11 “the sample penetrated to the center of the keratotic plug”. The collapsibility by the detergency against keratotic plug was relatively evaluated by criteria with 11 ratings starting from the rating 1 “almost no change is observed in the external appearance of the keratotic plug” to the rating 11 “peeling or separation is observed in the area from the surface layer to the central portion of the keratotic plug (the initial appearance of the keratotic plug is not retained)”.

[4] = Keratotic plug detergency (during cleansing): collapse state of keratotic plugs one minute after contact with the sample; parameters: species or system human; details: contact with the sample for 1 minute; samples of Table 1
Protocol: Keratotic plugs in the nasal region were removed with “Biore Nose Pack (manufactured by Kao Corporation)”, the resulting keratotic plugs on the pack were gently taken out with tweezers.
The resulting keratotic plugs were placed on a slide glass and were covered with a cover glass, and 0.05 mL of a sample was dropwise added to an edge of the cover glass. Consequently, the sample entered into the gap between the slide glass and the cover glass by capillary phenomenon and was brought into contact with the keratotic plugs. The contact of the keratotic plugs and the sample was recorded with a digital microscope (VHX-5000, manufactured by Keyence Corporation, magnification: 150×), and the penetration of the sample into the keratotic plugs and the collapse state of the keratotic plugs were evaluated after one minute from the contact of the keratotic plugs with the sample. The results of each evaluation are shown in the columns “Keratotic plug detergency (penetration)” and “Keratotic plug detergency (during cleansing)” in Tables. The measurements were performed at 25° C.
The penetration was relatively evaluated by criteria with 11 ratings starting from the rating 1 “the sample hardly penetrated into the keratotic plug” to the rating 11 “the sample penetrated to the center of the keratotic plug”. The collapsibility by the detergency against keratotic plug was relatively evaluated by criteria with 11 ratings starting from the rating 1 “almost no change is observed in the external appearance of the keratotic plug” to the rating 11 “peeling or separation is observed in the area from the surface layer to the central portion of the keratotic plug (the initial appearance of the keratotic plug is not retained)”.

[5] = system: insoluble protein (seine protein); assay: Evaluation of effect of suppressing protein aggregation (precipitation of insoluble protein); details: sample of Table 1
Protocol: Thirty milliliters of a sample and 0.06 g of an insoluble protein (seine protein) were placed in a 35-mL standard glass bottle, and the concentration of the insoluble protein was adjusted to 0.2 mass % (test sample). Separately, a standard sample was prepared by using water instead of the sample and adjusting the concentration of the insoluble protein to 0.2 mass %. Subsequently, the standard glass bottles were sufficiently shaken and stirred up and down (shake width: 15 cm, 20 times at a rate of 5 times for 3 seconds) in a thermostatic chamber of 25° C. and were left to stand for 3 minutes. The precipitation state of the insoluble protein was then visually verified, and the ratio of the amount of the precipitated standard sample to the amount of the precipitated test sample (the height of the precipitate in each standard glass bottle was measured as the precipitation amount), (precipitation amount of standard sample)/(precipitation amount of test sample), was calculated. A higher ratio indicates a higher effect of suppressing protein aggregation.

## CC(C)(N)CO [AMP, 2-amino-2-methyl-1-propanol]
[1]
  collapse of keratotic plugs during washing with water (in words): further accelerating the collapse of keratotic plugs
[2]
  solubility in water (in words): readily dissolved in water
[3]
  penetration of the sample into keratotic plugs (in words): the sample penetrated into keratotic plugs

## NC(CO)(CO)CO [Tris, 2-amino-2-hydroxymethyl-1,3-propanediol]
[2]
  solubility in water (in words): readily dissolved in water

## O=P([O-])([O-])O.[Na+].[Na+] [disodium hydrogen phosphate]
[1]
  collapse of keratotic plugs during washing with water (in words): the collapse of keratotic plugs did not progress
[4]
  collapse of keratotic plugs in contact with the sample, assumption of cleansing (in words): the collapse of the keratotic plugs did not progress
[3]
  penetration of the sample into keratotic plugs (in words): the sample hardly penetrated into keratotic plugs

## O=C([O-])O.[Na+] [sodium hydrogen carbonate]
[1]
  collapse of keratotic plugs during washing with water (in words): the collapse of keratotic plugs did not progress
[4]
  collapse of keratotic plugs in contact with the sample, assumption of cleansing (in words): the collapse of the keratotic plugs did not progress
[3]
  penetration of the sample into keratotic plugs (in words): the sample hardly penetrated into keratotic plugs

## O=P([O-])([O-])[O-].[Na+].[Na+].[Na+] [trisodium phosphate]
[1]
  collapse of keratotic plugs during washing with water (in words): the collapse of keratotic plugs did not progress
[4]
  collapse of keratotic plugs in contact with the sample, assumption of cleansing (in words): the collapse of the keratotic plugs did not progress
[3]
  penetration of the sample into keratotic plugs (in words): the sample hardly penetrated into keratotic plugs

## sodium polyoxyethylene (2) lauryl ether sulfate [POE (2) sodium lauryl sulfate]
[5]
  action on proteins (in words): the action on proteins was strong to dissolve the proteins
[4]
  collapse of keratotic plugs in contact with the sample, assumption of cleansing (in words): the collapse of the keratotic plugs did not progress
[3]
  penetration of the sample into keratotic plugs (in words): hardly penetrated into the keratotic plugs
